Experimental findings from patent US20250145594A1, “MODULATORS OF THE INTEGRATED STRESS PATHWAY” (Calico Life Sciences LLC, priority 2020, published 2025) are described below.

Molecules are shown by their SMILES.

This assay deals with ATF4 luciferase reporter in HEK293T cells. Briefly: ATF4-Luc assay (in vitro model of VWMD). It counts as cell-based, human. Conditions: Homo sapiens, HEK-293T, 7 h, HEK293T cells carrying the ATF4 luciferase reporter, 1 μg/mL tunicamycin, One Glo luminescence. In short, it runs like this:
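Tunicamycin (1 μg/mL) stress with co-added compound for 7 hours in HEK293T cells stably carrying an ATF4 5′-UTR–luciferase reporter. EC50 values come from the luminescent signal (One Glo).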
For orientation: A reporter such as luciferase makes a cellular process visible.

Usually EC50 stands for the concentration giving half of the maximal effect.

With `O=C(NC12CC(n3cc(CCCC(F)(F)F)cn3)(C1)C2)[C@H]1C[C@@H](O)c2cc(Cl)c(F)cc2O1` [Compound 520, (2R,4R)-6-chloro-7-fluoro-4-hydroxy-N-{3-[4-(4,4,4-trifluorobutyl)-1H-pyrazol-1-yl]bicyclo[1.1.1]pentan-1-yl}-3,4-dihydro-2H-1-benzopyran-2-carboxamide], the EC50 is 10 to 50 nM.

For `O=C(NC12CC(n3cc(-c4cnn(CC(F)(F)F)c4)cn3)(C1)C2)[C@H]1C[C@@H](O)c2cc(Cl)c(F)cc2O1` [Compound 564, (2R,4R)-6-chloro-7-fluoro-4-hydroxy-N-{3-[1′-(2,2,2-trifluoroethyl)-1H,1′H-[4,4′-bipyrazol]-1-yl]bicyclo[1.1.1]pentan-1-yl}-3,4-dihydro-2H-1-benzopyran-2-carboxamide], the EC50 is under 10 nM.

For `O=C(NC12CCC(n3cc(-c4ccc(C(F)(F)F)cn4)cn3)(C1)C2)[C@H]1C[C@@H](O)c2cc(Cl)ccc2O1` [Compound 626, (2R,4R)-6-chloro-4-hydroxy-N-(4-{4-[5-(trifluoromethyl)pyridin-2-yl]-1H-pyrazol-1-yl}bicyclo[2.1.1]hexan-1-yl)-3,4-dihydro-2H-1-benzopyran-2-carboxamide], the concentration giving a half-maximal response (EC50) lay within 10 to 50 nM.

Take `O=C(NC12CC(c3cnc(OCCCOC(F)(F)F)o3)(C1)C2)[C@H]1C[C@@H](O)c2cc(Cl)c(F)cc2O1` [Compound 417, (2R,4R)-6-chloro-7-fluoro-4-hydroxy-N-(3-{2-[3-(trifluoromethoxy)propoxy]-1,3-oxazol-5-yl}bicyclo[1.1.1]pentan-1-yl)-3,4-dihydro-2H-1-benzopyran-2-carboxamide]: the EC50 is under 10 nM.

For the molecule `CC1(C(F)(F)F)CCCN1C(=O)c1cnn(C23CC(NC(=O)[C@H]4C[C@@H](O)c5cc(Cl)ccc5O4)(C2)C3)c1` (stereo partly drawn) [Compound 328, (2R,4R)-6-chloro-4-hydroxy-N-(3-{4-[2-methyl-2-(trifluoromethyl)pyrrolidine-1-carbonyl]-1H-pyrazol-1-yl}bicyclo[1.1.1]pentan-1-yl)-3,4-dihydro-2H-1-benzopyran-2-carboxamide], the EC50 lay within 50 to 250 nM.

Turning to `O=C(NC12CC(n3cc(OCCOC(F)(F)F)cn3)(C1)C2)[C@H]1C[C@@H](O)c2cc(F)ccc2O1` [Compound 418, (2R,4R)-6-fluoro-4-hydroxy-N-(3-{4-[2-(trifluoromethoxy)ethoxy]-1H-pyrazol-1-yl}bicyclo[1.1.1]pentan-1-yl)-3,4-dihydro-2H-1-benzopyran-2-carboxamide], the EC50 lay within 10 to 50 nM.

For the molecule `Cn1nc(C23CC(NC(=O)COc4ccc(Cl)c(F)c4)(C2)C3)cc1O[C@H]1C[C@@H](OC(F)(F)F)C1` [Compound 345, 2-(4-chloro-3-fluorophenoxy)-N-[3-(1-methyl-5-{[cis-3-(trifluoromethoxy)cyclobutyl]oxy}-1H-pyrazol-3-yl)bicyclo[1.1.1]pentan-1-yl]acetamide], the EC50 fell in the range of 50 to 250 nM.

Regarding `COc1ccc2nn(C34CC(NC(=O)[C@H]5C[C@@H](O)c6cc(C(F)(F)F)c(F)cc6O5)(C3)C4)cc2n1` (racemic) [Compound 655, rac-(2R,4R)-7-fluoro-4-hydroxy-N-[3-(5-methoxy-2H-pyrazolo[4,3-b]pyridin-2-yl)bicyclo[1.1.1]pentan-1-yl]-6-(trifluoromethyl)-3,4-dihydro-2H-1-benzopyran-2-carboxamide], the EC50 was under 10 nM.

On to `O=C(NC12CC(c3ccnc(OCCCOC(F)(F)F)c3)(C1)C2)[C@H]1C[C@@H](O)c2cc(Cl)ccc2O1` [Compound 428, (2R,4R)-6-chloro-4-hydroxy-N-(3-{2-[3-(trifluoromethoxy)propoxy]pyridin-4-yl}bicyclo[1.1.1]pentan-1-yl)-3,4-dihydro-2H-1-benzopyran-2-carboxamide], for which the EC50 is under 10 nM.
